Data published in US20100292289A1 (priority 2007, published 2010).
Read-outs that look alike come from different tables or passages of the source.

Tests used:
[1] = molecular target: T1, GLP-1 receptor (Homo sapiens, UniProt P43220); test: FLIPR calcium flux assay, antagonist format, GLP-1; assay type: cell-based; conditions: 1 μM, reference ligand Glucagon at EC80 as 0% inhibition; read-out: % Inhibition Antagonist GLP-1
Procedure: (§1) A FLIPR assay was conducted to monitor agonist and antagonist selectivity for compounds of the invention against the CBI and GLP-1 receptors. Percentage activation and percentage inhibition values were determined for each compound on each of the GPCRs listed above. Agonist selectivity was determined upon initial addition of compounds followed by 10 minute incubation at 25° C. Following compound incubation, reference agonists were added at EC80 to determine percentage inhibition.
(§2) Agonist percentage activation determinations were obtained by assaying sample compounds and referencing the Emax control for each of the GPCRs profiled. Antagonist percentage inhibition determinations were obtained by assaying sample compounds and referencing the control EC80 wells for each of the GPCRs profiled. The protocol design is as follows:
(§3) Unless specified otherwise, all sample compounds were diluted in 100% anhydrous DMSO including all serial dilutions. Occasionally sample compounds were provided in a different solvent, in this case all master stock dilutions were performed in the specified diluent. All control wells contained identical solvent final concentrations as sample compound wells.
(§4) Sample compounds were transferred from a master stock solution into a daughter plate that was used in the assay. Each sample compound was diluted into assay buffer (1×HBSS with 20 mM HEPES) at an appropriate concentration to obtain final concentrations.
(§5) Using the EC50 values determined previously, stimulated all pre-incubated sample compound and reference antagonist (if applicable) wells with EC80 of reference agonist. Read for 90 seconds using the FLIPRTETRA. (This assay added reference agonist to respective wells—then fluorescence measurements were collected to calculate percentage inhibition.)
(§6) All plates were subjected to appropriate baseline corrections. Once baseline corrections were processed, maximum fluorescence values were exported and data manipulated to calculate percentage activation, percentage inhibition, Z′, EC50, and IC50. Percentage activation data was calculated using Emax as 100% control. Percentage inhibition was calculated using EC80 as 0% inhibition.

[2] = in vivo; design: species or system Sprague-Dawley rats; conditions: rat; for bioavailability: male, Sprague-Dawley, po, 20 mg/kg; for half-life: male Sprague-Dawley rats
Procedure: The pharmacokinetics of compounds 4a, 6a, and 12 was evaluated in male Sprague-Dawley rats (n=3) following single intravenous (i.v., 1 mg/kg) or oral (p.o., 20 mg/kg) doses.

[3] = molecular target: T2, CB1 receptor (Homo sapiens, UniProt P21554); test: FLIPR calcium flux assay, antagonist format, CB1; assay type: cell-based; conditions: reference agonist CP-55,940 at EC80 as 0% inhibition
Procedure: as §1, §2, §3, §4, §5, §6

[4] = molecular target: T1, GLP-1 receptor; test: FLIPR calcium flux assay, agonist format, GLP-1; assay type: cell-based; conditions: Emax of reference ligand Glucagon as 100%
Procedure: as §1, §2, §3, §4
(§7) All sample compounds were plated at 1 μM in duplicate for assaying against all GPCRs. Reference agonists were handled as mentioned above serving as assay control. These reference agonists were handled as described above for both EMax and EC80 control wells. Assay was read for 90 seconds using the FLIPRTETRA. (This assay run added sample compounds and reference agonist to respective rows.) At the completion of the first “Single Addition” assay run, assay plate was removed from the FLIPRTetra and placed at 25° C. for 10 minutes.
as §6

[5] = molecular target: T2, CB1 receptor; test: FLIPR calcium flux assay, agonist format, CB1; assay type: cell-based; conditions: Emax of reference agonist CP-55,940 as 100%
Procedure: as §1, §2, §3, §4, §7, §6

[6] = system: non-insulin dependent diabetic mellitus (NIDDM) male mice (C57BL/KsJ-db/db Jcl); test: In vivo analysis in the db/db mouse (serum insulin, serum glucose, weight); conditions: for percentage increase in insulin levels: FIG. 1; for percentage decrease in glucose levels: FIG. 2; for percentage decrease in weight: FIG. 3
Procedure: […] All animals were allowed free access to normal laboratory chow and water.
Serum glucose and insulin levels were determined by Enzymatic Method (Mutaratase-GOD) and ELISA (mouse insulin assay kit) from orbital sinus blood samples obtained before (pretreatment) and 90 minutes after the last vehicle and/or test substance administration (postreatment) and percent change was determined.

[7] = iv, single i.v. dose 1 mg/kg, read-out: t1/2 (i.v., hr) (converted)
[8] = single oral dose 20 mg/kg, read-out: t1/2 (p.o., hr) (converted)
[9] = 200 mg/kg oral gavage once daily for three days

T1 sequence (P43220 24-463): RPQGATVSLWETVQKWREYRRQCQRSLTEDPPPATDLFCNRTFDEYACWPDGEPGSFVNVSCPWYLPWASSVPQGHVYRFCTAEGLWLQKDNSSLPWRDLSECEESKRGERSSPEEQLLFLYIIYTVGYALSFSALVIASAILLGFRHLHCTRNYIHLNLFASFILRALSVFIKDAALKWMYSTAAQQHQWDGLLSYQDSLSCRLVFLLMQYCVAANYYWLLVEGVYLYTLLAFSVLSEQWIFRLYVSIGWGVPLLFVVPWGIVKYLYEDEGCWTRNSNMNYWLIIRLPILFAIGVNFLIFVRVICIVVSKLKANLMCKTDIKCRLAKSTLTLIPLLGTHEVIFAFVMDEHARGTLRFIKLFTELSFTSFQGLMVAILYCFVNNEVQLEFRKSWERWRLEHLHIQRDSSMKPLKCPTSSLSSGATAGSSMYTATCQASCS
T2 sequence (P21554 whole entry): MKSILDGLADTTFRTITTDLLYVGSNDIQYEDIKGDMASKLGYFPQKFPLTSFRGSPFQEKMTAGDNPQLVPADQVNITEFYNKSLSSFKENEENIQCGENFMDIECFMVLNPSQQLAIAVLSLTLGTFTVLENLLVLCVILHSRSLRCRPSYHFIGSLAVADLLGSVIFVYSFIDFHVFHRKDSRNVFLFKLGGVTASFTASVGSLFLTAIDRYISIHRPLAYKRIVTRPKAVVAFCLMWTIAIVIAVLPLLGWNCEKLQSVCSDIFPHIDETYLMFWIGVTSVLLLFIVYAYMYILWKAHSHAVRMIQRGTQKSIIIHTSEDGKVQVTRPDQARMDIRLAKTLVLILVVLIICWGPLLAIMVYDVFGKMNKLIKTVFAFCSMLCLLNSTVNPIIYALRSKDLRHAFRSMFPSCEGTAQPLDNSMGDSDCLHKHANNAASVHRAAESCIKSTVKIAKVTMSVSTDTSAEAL

Row | Compound | inhibition at 1 µM [1] [%] | bioavailability [2] [%] | half-life [2, 7] [h] | half-life [2, 8] [h] | inhibition at 1 µM [3] [%] | activation at 1 µM [4] [%] | activation at 1 µM [5] [%] | percentage increase in insulin levels [6, 9] | percentage decrease in glucose levels [6, 9] | percentage decrease in weight [6, 9] | percentage increase in insulin levels ([6]; 100 mg/kg oral gavage once daily for three days) | percentage increase in insulin levels ([6]; 300 mg/kg oral) | percentage decrease in glucose levels ([6]; 300 mg/kg oral) | percentage decrease in weight ([6]; 300 mg/kg oral)
1 | C[C@H](C(=O)NCC[C@@H](Oc1ccc(C(F)(F)F)cc1)c1ccccc1)c1cccc(C(=O)c2ccccc2)c1 [Compound 6a] | -7.2 | 14.8 | 1.4 | 2.1 | 77.9 | 38.6 | 4.2 | significant increases | significant decreases | significant decreases |  |  |  | 
2 | CC(C)Cc1ccc([C@H](C)C(=O)N(C)CCC(Oc2ccc(C(F)(F)F)cc2)c2ccccc2)cc1 (stereo partly drawn) [Compound 12] | -14.9 | 6.5 | 1.7 | 1.4 | 3.2 | 44.6 | 4.1 |  |  |  |  |  |  | 
3 | CC(C)Cc1ccc([C@H](C)C(=O)N(C)CC[C@H](Oc2ccc(C(F)(F)F)cc2)c2ccccc2)cc1 [Compound 12b] | 5.9 |  |  |  | 1.6 | 24.5 | 8.3 | significant increases | significant decreases | significant decreases | significant increase |  |  | 
4 | CC(C)Cc1ccc([C@H](C)C(=O)NCC[C@@H](Oc2ccc(C(F)(F)F)cc2)c2ccccc2)cc1 [Compound 4a] | -21.8 | 5.1 | 0.6 | 1 | 7.7 | 39.9 | 3.2 |  |  |  |  |  |  | 
5 | CC(C)Cc1ccc([C@H](C)C(=O)N(C)CC[C@@H](Oc2ccc(C(F)(F)F)cc2)c2ccccc2)cc1 [Compound 12a] | 4.5 |  |  |  | 52.2 | 7.6 | 3.6 | significant increases | significant decreases | significant decreases |  |  |  | 
6 | CN(C)C(=N)N=C(N)N [metformin, reference compound] |  |  |  |  |  |  |  |  |  |  |  | does not show an increase | significant decrease | does not show a decrease
